Experiments:
[1] = test system: OCI-AML3 cells; assay: Cell viability / proliferation assay in OCI-AML3 cells; format: cell-based, human
Method: (§1) Proliferation assays were performed as previously described. Viable cell counts were determined by flow cytometry using Sytox Blue (Invitrogen) or DAPI viability stains.

[2] = test system: HL-60 cells; assay: Cell viability / proliferation assay in HL-60 cells; format: cell-based, human
Method: as §1

[3] = test system: HOX, MEIS1 and FLT3 expression in OCI-AML3 cells; assay: Gene expression (quantitative PCR / RNA sequencing) in OCI-AML3 cells; format: cell-based, human
[4] = test system: Npm1CA/+RosaSB/+ and Npm1CA/+Flt3ITD/+ leukemia cells; assay: Colony forming and liquid culture proliferation assays in murine NPM1mut leukemia cells; format: cell-based; settings: EPZ4777 10 μM
Method: For drug testing experiments, leukemic blasts were harvested from moribund primarily transplanted mice and cultured in vitro.
as §1
RNA and DNA purification, cDNA synthesis, quantitative real-time (qRT-) PCR, western blotting, flow cytometry, colony forming assays, viral transduction and shRNA based knock down experiments were performed using standard procedures. Primer sequences, western antibodies, and plasmids are also listed in the supplement.

[5] = test system: Hoxa9-Meis1 transformed cells; assay: Colony forming assay in Hoxa9-Meis1 transformed cells; format: cell-based, murine; settings: Hoxa9-Meis1 in vitro transformed cells, EPZ4777 10 μM
[6] = test system: menin, H3K4me3 and H3K79me2 at HOX and MEIS1 loci in OCI-AML3 cells; assay: Chromatin immunoprecipitation-qPCR and immunoblotting of chromatin marks in OCI-AML3 cells; format: cell-based, human; settings: OCI-AML3, EPZ4777 10 μM
[7] = test system: Npm1CA/+RosaSB/+ leukemia cells; assay: Transplantation of ex vivo pretreated Npm1CA/+RosaSB/+ leukemia cells (leukemia initiating potential); format: in vivo, mice; settings: for survival compared to vehicle control: pretreated Npm1CA/+RosaSB/+ cells, single compound
Method: As HOX gene expression is associated with self-renewal properties, the inventors next determined whether pharmacological DOT1L inhibition inhibits NPM1^mut leukemia initiation in mice. Murine Npm1^CA/+Rosa^SB/+ leukemia cells were treated ex vivo with EPZ4777 or drug vehicle for 10 days and equal numbers of viable cells were transplanted into sublethally irradiated recipient animals.
Npm1^CA/+Flt3^ITD/+ and Npm1^CA/+Rosa^SB/+ cells were harvested from moribund leukemic animals and transplanted into primary and secondary recipient mice as previously described. […] All transplantation experiments with ex vivo treated cells were performed as secondary transplantations.

[8] = target: DOT1L (Homo sapiens (Human), UniProt Q8TEK3); settings: cited from earlier work
DOT1L, sequence (Q8TEK3 whole entry): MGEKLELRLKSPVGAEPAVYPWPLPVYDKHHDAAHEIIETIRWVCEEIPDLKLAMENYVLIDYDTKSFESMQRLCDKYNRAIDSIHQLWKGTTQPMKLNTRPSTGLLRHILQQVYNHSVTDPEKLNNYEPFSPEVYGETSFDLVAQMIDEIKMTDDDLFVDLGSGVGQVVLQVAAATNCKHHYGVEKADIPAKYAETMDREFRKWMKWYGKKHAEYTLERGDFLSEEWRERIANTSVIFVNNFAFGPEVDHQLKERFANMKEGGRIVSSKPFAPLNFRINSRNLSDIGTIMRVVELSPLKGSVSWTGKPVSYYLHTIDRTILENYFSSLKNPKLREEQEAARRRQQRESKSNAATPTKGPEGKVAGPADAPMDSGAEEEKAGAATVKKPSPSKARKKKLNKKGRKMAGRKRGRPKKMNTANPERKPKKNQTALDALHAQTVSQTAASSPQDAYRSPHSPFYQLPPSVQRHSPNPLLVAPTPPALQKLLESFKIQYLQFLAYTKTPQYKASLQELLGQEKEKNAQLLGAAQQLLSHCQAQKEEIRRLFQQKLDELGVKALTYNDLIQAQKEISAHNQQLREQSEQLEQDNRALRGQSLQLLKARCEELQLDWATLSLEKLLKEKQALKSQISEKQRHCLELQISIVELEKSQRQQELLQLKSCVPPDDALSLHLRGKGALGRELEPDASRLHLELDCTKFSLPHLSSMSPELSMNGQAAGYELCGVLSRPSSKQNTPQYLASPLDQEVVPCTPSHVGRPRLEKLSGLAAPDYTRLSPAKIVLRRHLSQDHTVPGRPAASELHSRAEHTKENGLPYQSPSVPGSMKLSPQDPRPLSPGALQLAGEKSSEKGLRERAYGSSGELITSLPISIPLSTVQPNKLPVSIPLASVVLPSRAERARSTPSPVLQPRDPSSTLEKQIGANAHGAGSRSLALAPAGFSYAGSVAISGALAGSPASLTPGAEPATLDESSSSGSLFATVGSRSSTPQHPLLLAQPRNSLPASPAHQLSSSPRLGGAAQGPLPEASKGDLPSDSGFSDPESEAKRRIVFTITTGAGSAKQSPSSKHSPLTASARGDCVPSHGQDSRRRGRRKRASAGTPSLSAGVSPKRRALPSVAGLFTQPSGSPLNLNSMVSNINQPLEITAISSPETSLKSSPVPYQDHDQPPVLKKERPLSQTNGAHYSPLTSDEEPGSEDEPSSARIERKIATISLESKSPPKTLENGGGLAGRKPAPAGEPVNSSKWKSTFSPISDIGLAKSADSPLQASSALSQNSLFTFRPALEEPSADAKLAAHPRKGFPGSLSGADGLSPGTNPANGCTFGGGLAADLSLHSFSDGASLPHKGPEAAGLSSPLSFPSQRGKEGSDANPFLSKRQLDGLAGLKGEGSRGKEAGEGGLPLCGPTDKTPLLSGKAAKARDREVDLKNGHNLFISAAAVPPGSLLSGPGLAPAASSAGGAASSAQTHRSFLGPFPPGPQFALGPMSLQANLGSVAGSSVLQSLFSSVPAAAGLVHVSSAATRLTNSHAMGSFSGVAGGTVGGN

[9] = test system: OCI-AML3 cells; assay: Cell differentiation by CD11b flow cytometry in OCI-AML3 cells; format: cell-based, human; settings: OCI-AML3, MI-2-2 12 μM, day seven of treatment
[10] = test system: OCI-AML3 cells; assay: OCI-AML3 xenotransplantation model in NSG mice; format: in vivo; settings: MI-503 50 mg/kg bid IP, versus vehicle
[11] = OCI-AML3, 4 days of MI-2-2 treatment (12 μM)

SMILES	cell proliferation ([1]; human NPM1mut leukemia cells (OCI-AML3), EPZ4777 10 μM)	cell proliferation ([2]; HL-60, EPZ4777 10 μM)	FLT3 expression ([3]; EPZ4777 10 μM, 7 days, all NPM1mut models)	HOX gene expression ([3]; EPZ4777 10 μM, 7 days, human and murine models)	cell proliferation and colony forming potential [4]	colony forming potential [5]	H3K79me2 marks (immunoblotting and ChIP-PCR) [6]	WBC counts at time of disease onset within the control group ([7]; cells treated ex vivo with EPZ4777 for 10 days)	survival of recipient animals ([7]; cells treated ex vivo with EPZ4777 for 10 days, versus vehicle)	survival compared to vehicle control [7]	specificity for DOT1L as compared to other methyl transferases [8]	cell proliferation ([1]; OCI-AML3, dose response, 11 days of MI-2-2 treatment)	cell growth inhibition ([2]; HL-60 (no NPM1mut or MLL-rearrangement), MI-2-2 dose response)	FLT3 transcript levels [3, 11]	HOXA, HOXB cluster and MEIS1 gene expression [3, 11]	CD11b expression [9] [%]	potency compared with MI-2-2 (dose response curves) ([1]; human and murine NPM1mut leukemia cells)	leukemia burden (percentage of bone marrow cells expressing human CD45) ([10]; 7 and 12 days)	HOXB4, MEIS1 and FLT3 expression in sorted human CD45 positive cells [10]
CC(C)N(CCCNC(=O)Nc1ccc(C(C)(C)C)cc1)C[C@H]1O[C@@H](n2ccc3c(N)ncnc32)[C@H](O)[C@@H]1O [EPZ4777]	profound reduction	unaffected	dramatic suppression	significant repression	profound reduction	unaffected	global and HOXA and HOXB loci specific reduction	significantly lower WBC counts	significant survival advantage	significantly prolonged survival	highly specific for DOT1L								
CC1(C)CN=C(N2CCN(c3ncnc4sc(CC(F)(F)F)cc34)CC2)S1 [MI-2-2]												profound dose-dependent reduction in cell proliferation	only a mild cell growth inhibitory effect at higher doses	substantially and highly significantly suppressed	significant down regulation	72			
Cc1c(CN2CCC(Nc3ncnc4sc(CC(F)(F)F)cc34)CC2)ccc2c1cc(C#N)n2Cc1cn[nH]c1 [MI-503]										significantly prolonged survival							higher potency	significantly reduced	dramatic decrease of expression levels

From patent US20260007675A1, “TARGETING CHROMATIN REGULATORS INHIBITS LEUKEMOGENIC GENE EXPRESSION IN NPM1 MUTANT LEUKEMIA” (MEMORIAL SLOAN KETTERING CANCER CENTER, priority 2016, published 2026)
